What all share (assay type): in vivo
Assay [1] has as its system 5-MDMT induced symptoms. Briefly: Anti-5HT activity: inhibition of 5-methoxy-N,N-dimethyltryptamine induced symptoms in mice. Particulars: Mouse, p.o., pretreated 1 h before 10 mg/kg ip 5-methoxy-N,N-dimethyltryptamine, dose inhibiting symptoms by 50%; for ED50: po. How it is done: (§1) Mice (♂ CD^-1 Charles Rine) are pretreated with the compounds 10 animals/group under investigation and 1 h later one group is injected with 10 mg/kg ip 5-methoxy-N,N-dimethyltryptamioe (Sigma). The symptoms of fore- paw tapping movements, head jerks and splayed limbs are scored: 1, present; O, absent, giving a maximum score of 3/mouse or 30/group. Results are expressed as the percentage inhibition compared to the group treated with 5-methoxy-N,N-dimethyl tryptamine alone. The dose of compound inhibiting the symptoms by 50% is determined graphically.

Assay [2] deals with 5-MDMT induced symptoms. Kind of assay: Anti-5HT activity: inhibition of 5-MDMT induced symptoms in rats. To be noted: Rat; for ED50: po. How it is done:
[The procedure below names another organism; the source lists this organism under the same test.] as §1

The test system of assay [3] is post-synaptic Dopamine (D.A.) receptors. Briefly: Dopamine receptor blocking activity in the CNS: inhibition of apomorphine induced climbing. Particulars: male CDl mice, p.o., apomorphine 1 mg/kg subcutaneous. How it is done: The test is based on that described by Protais, P., Constantin, J. and Schwartz J.C. (1976), Psychopharmacology, 50, 1-6.
When mice are given a dose of 1 mg/kg apomorphine and then placed in an enclosed environment, such as an inverted wire cage, they are seen to climb around the walls. This behavioural phenomenon is thought to be a consequence of the stimulation of post-synaptic Dopamine (D.A.) receptors in the nucleus accumbens. Inhibition of apomorphine induced climbing is therefore indicative of post-synaptic D.A. receptor blockade in the accumbens.
Groups of 10 male CDl mice, weighing 25-30 g were pre-treated orally with either graded doses of the test compound or vehicle, at appropriate time intervals before the subcutaneous administration of a sub-maximal dose of apomorphine (1 mg/kg). Immediately after the apomorphine injection the mice were placed in wire 'climbing cages' and each animal was scored for climbing behavour at 10 and 20 minutes post apomorphine as follows:- • Four paws on cage floor = O • Fore paws on cage wall = 1 • Four paws on cage wall = 2 […]

Broadly, the ED50 is the dose that gives a 50% effect, or the effect in half of the subjects.

For “4-Amino-5-chloro-2-methoxy-N-[3-β-(8-cyclopropylmethyl-8-azabicyclo (3,2,1)octyl]benzamide [Example 3]”, in the assay on 5-MDMT induced symptoms [1], the “Anti 5-HT Activity Inhibition of 5-MDMT induced symptoms ED50” value was “ED503 mg/kg”. The “Anti 5-HT Activity Inhibition of 5-MDMT induced symptoms” value in the assay on 5-MDMT induced symptoms [2] (at 10 mg/kg p.o.) was found to be 56% at 10.
For the compound `COc1cc(NC(C)=O)c(Cl)cc1C(=O)N[C@@H]1C[C@H]2CC[C@@H](C1)N2CC(C)(C)C` [Example 1, 4-Aoetylamino-5-chloro-2-methoxy-N-[3-β-(8-neopentyl-8-azabicyclo (3,2,1)octyl)]benzamide], the ED50 amounted to 2.4 mg/kg with 5-MDMT induced symptoms [1] and 10 mg/kg in the assay with 5-MDMT induced symptoms [2]. The “ED50 inhibition of apomorphine - induced climbing” value in assay [3] worked out at 4 mg/kg.
With `COc1cc(N)c(Cl)cc1C(=O)NC1CC2CCC(C1)N2CC(C)(C)C` (stereo not drawn) [Example 2, 4-Amino-5-chloro-2-methoxy-N-[3-β-(8-neopentyl-8-azabicyclo (3,2,1)octyl)] benzamide], the ED50 with 5-MDMT induced symptoms [1] worked out at 0.2 mg/kg; in the assay on 5-MDMT induced symptoms [2], 7.2 mg/kg.
In the same order, the values of `COc1cc(N)c(Cl)cc1C(=O)NC1CC2CCCC(C1)N2CC(C)(C)C` (stereo not drawn) [Example 4, 4-Amino-5-chloro-2-mthoxy-N-[3-β-(9-neopentyl-9-azabicyclo (3,3,1)nonyl)]benzamide] are 4.6 mg/kg and 6.2 mg/kg.
Turning to `COc1cc(N)c(Cl)cc1C(=O)NC1CC2CCC(C1)N2CCC(C)C` (stereo not drawn) [Example 5, 4-Amino-5-chloro-2-methoxy-N-[3-β-(8-isopentyl-8-azabicyclo(3,2,1)octyl)] benzamide], the ED50 in the assay on 5-MDMT induced symptoms [1] worked out at 8 mg/kg.
`COc1cc(NC(C)=O)c(Cl)cc1C(=O)NC1CC2CCCC(C1)N2CC(C)(C)C` (stereo not drawn) [Example 6] gave an ED50 with 5-MDMT induced symptoms [2] of 10 mg/kg.
For the compound `COc1cc(N)c(Br)cc1C(=O)NC1CC2CCC(C1)N2CC(C)(C)C` (stereo not drawn) [Example 7, 4-Amino-5-bromo-2-methoxy-N-[3-β-(8-neopentyl-8-azabicyclo (3,2,1)octyl) ]benzamide], the median effective dose (ED50) in the assay with 5-MDMT induced symptoms [1] is 4 mg/kg.
